Measurements taken from ChEMBL document CHEMBL1157886, “Potent dihydroquinolinone dopamine D2 partial agonist/serotonin reuptake inhibitors for the treatment of schizophrenia” (Bioorg Med Chem Lett, 2010).

Tests used:
[1] = molecular target: T1, D(2) dopamine receptor (Homo sapiens, UniProt P14416); test: Ratio of compound to quinpirole partial agonist activity at human dopamine D2 receptor; type: functional
[2] = molecular target: T1, D(2) dopamine receptor; test: Displacement of [3H]spiperone form human dopamine D2 receptor by liquid scintillation counting
[3] = molecular target: T2, Adrenergic receptor alpha-1 (Homo sapiens, UniProt P35348+P25100+P35368); test: Binding affinity to human alpha1 adrenergic receptor by radioligand displacement assay
T2 sequence (P35348 whole entry): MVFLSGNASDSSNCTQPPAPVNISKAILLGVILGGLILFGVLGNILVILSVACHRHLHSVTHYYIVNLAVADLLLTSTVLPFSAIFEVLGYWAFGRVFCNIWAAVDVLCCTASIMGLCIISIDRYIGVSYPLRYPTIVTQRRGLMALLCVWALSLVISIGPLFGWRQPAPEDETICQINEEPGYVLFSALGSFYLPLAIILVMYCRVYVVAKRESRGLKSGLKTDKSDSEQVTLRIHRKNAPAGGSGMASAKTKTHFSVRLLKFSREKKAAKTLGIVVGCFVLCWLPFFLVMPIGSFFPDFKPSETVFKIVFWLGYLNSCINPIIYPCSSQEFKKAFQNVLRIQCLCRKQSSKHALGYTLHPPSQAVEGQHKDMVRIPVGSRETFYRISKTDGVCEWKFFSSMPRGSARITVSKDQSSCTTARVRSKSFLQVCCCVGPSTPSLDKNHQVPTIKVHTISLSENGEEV
T2 sequence (P25100 whole entry): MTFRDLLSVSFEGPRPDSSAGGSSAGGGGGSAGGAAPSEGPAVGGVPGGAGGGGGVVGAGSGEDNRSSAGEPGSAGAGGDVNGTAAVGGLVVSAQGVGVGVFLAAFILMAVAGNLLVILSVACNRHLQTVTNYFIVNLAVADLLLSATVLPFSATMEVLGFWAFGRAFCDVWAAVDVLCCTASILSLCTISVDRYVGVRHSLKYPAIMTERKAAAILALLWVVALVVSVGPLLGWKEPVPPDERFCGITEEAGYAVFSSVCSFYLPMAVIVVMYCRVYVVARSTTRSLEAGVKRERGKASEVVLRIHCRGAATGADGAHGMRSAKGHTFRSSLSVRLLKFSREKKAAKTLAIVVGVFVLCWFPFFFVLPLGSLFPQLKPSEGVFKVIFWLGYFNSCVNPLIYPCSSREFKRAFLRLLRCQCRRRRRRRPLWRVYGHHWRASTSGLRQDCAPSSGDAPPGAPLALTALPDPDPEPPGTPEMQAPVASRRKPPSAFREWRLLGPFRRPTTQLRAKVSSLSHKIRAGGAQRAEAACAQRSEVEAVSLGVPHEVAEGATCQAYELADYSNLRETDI
T2 sequence (P35368 whole entry): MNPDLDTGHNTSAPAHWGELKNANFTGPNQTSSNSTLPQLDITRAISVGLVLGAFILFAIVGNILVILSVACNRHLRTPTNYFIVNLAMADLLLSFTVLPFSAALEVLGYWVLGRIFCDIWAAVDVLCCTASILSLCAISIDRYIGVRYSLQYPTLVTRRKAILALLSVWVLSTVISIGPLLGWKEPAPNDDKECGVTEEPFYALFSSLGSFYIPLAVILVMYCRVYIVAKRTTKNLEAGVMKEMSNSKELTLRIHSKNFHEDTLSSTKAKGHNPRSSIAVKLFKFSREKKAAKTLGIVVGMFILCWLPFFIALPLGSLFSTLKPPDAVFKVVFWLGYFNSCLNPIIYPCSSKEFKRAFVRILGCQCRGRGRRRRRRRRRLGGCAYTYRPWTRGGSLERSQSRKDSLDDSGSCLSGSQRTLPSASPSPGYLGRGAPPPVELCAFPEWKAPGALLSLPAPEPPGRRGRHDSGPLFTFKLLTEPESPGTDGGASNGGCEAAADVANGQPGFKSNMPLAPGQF

[4] = molecular target: Sodium-dependent serotonin transporter (Homo sapiens, UniProt P31645)
Sequence of Sodium-dependent serotonin transporter (P31645 whole entry): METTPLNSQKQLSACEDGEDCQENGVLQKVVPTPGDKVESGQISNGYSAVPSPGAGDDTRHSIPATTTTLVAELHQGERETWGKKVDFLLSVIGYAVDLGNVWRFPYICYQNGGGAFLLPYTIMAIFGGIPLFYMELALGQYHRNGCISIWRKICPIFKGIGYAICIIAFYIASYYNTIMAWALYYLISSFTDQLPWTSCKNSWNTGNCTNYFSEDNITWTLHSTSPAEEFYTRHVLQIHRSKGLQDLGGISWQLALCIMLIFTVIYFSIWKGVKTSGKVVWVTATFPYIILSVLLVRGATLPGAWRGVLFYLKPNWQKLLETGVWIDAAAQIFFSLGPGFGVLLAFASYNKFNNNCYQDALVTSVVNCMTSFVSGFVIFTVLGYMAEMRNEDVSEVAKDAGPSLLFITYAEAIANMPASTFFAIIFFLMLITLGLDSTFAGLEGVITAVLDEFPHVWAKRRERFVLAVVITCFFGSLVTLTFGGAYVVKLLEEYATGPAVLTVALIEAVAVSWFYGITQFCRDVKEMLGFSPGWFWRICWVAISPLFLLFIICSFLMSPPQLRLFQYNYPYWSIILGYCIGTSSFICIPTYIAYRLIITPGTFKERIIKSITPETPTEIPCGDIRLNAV

T1 sequence (P14416 whole entry): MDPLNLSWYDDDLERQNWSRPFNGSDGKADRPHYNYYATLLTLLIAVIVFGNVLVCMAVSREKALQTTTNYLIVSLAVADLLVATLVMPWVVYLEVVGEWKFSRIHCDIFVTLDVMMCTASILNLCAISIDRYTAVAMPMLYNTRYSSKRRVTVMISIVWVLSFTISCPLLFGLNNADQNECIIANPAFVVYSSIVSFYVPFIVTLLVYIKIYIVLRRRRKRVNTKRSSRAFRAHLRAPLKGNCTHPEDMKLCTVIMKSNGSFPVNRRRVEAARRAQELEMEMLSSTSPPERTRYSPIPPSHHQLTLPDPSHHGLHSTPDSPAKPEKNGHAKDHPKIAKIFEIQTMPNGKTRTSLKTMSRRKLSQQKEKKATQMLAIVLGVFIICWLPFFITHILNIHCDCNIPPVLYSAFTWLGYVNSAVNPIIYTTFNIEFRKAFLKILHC

Row | Compound | Ratio [1] | Ki [2] [nM] | Ki [3] [nM] | Ki [4] [nM]
1 | CS(=O)(=O)Nc1cc(OCCN2CCC(Oc3ccc4c(c3)NC(=O)CC4)CC2)ccc1F | < 0.1 | 9 | 354 | 30
2 | CS(=O)(=O)Nc1cc(OCCN2CC3CCC(C2)C3Cc2ccc3c(c2)NC(=O)CC3)ccc1F (centres undefined) | 0.85 | 7 | 1100 | 5
3 | CS(=O)(=O)Nc1cccc(OCCN2CCC(Cc3ccc4c(c3)NC(=O)CC4)CC2)c1 | < 0.1 | 9 | – | 19
4 | CS(=O)(=O)Nc1cc(OCCN2CCC(Cc3ccc4c(c3)NC(=O)CC4)CC2)ccc1F | < 0.1 | 19 | – | 20
5 | CS(=O)(=O)Nc1cccc(OCCN2CCC(Oc3ccc4c(c3)NC(=O)CC4)CC2)c1 | 0.21 | 18 | 91 | 22
6 | O=C1CCc2ccc(OC3CCN(C[C@@H]4COc5c(ccc6c5CC(=O)N6)O4)CC3)cc2N1 | 0.41 | 2.5 | 2 | 20
7 | O=C1CCc2ccc(OCCCN3CCN(c4cccc5[nH]c(=O)oc45)CC3)cc2N1 | – | 8.6 | – | 93
8 | O=C1CCc2ccc(OCCN3CCN(c4cccc5[nH]c(=O)oc45)CC3)cc2N1 | – | 8.6 | – | 538
9 | O=C1CCc2ccc(OCCCCN3CCN(c4cccc5[nH]c(=O)oc45)CC3)cc2N1 | – | 8.3 | – | 94
10 | CS(=O)(=O)Nc1cccc(OCCN2CC3CCC(C2)C3Cc2ccc3c(c2)NC(=O)CC3)c1 (centres undefined) | 0.25 | 11 | > 3300 | 1.7
11 | O=C1CCc2ccc(CC3C4CCC3CN(C[C@@H]3COc5c(ccc6c5CC(=O)N6)O3)C4)cc2N1 (some centres undefined) | 0.4 | 6.3 | 46 | 1.5
12 | O=C1CCc2ccc(CC3CCN(C[C@@H]4COc5c(ccc6c5CC(=O)N6)O4)CC3)cc2N1 | 0.38 | 8 | 2 | 1.9
13 | O=C1CCc2ccc(CC3CC4CCC(C3)N4C[C@@H]3COc4c(ccc5c4CC(=O)N5)O3)cc2N1 (some centres undefined) | < 0.1 | 16 | 8 | 0.26
